The values that follow come from US20220120736A1, “METHODS AND ASSAYS FOR MODULATING GENE TRANSCRIPTION BY MODULATING CONDENSATES” (Whitehead Institute for Biomedical Research, priority 2018, published 2022).

For assay [1], the system named is ER Y537S, ER D538G, ER-YAP1, ER-PCDH11X condensates with MED1. The assay is described as follows: In vitro droplet formation assay, mutant ER GFP fusion proteins and MED1. The format is biochemical. The settings on record: all four mutant ER proteins; ligand 100 uM. Here is the method: Recombinant GFP or mCherry fusion proteins were concentrated and desalted to an appropriate protein concentration and 125 mM NaCl using Amicon Ultra centrifugal filters (30K MWCO, Millipore). Recombinant proteins were added to solutions at varying concentrations with indicated final salt and 10% PEG-8000 as crowding agent in Droplet Formation Buffer (50 mM Tris-HCl pH 7.5, 10% glycerol, 1 mM DTT). The protein solution was immediately loaded onto a homemade chamber comprising a glass slide with a coverslip attached by two parallel strips of double-sided tape. Slides were then imaged with an Andor confocal microscope with a 150× objective. Unless indicated, images presented are of droplets settled on the glass coverslip. […] One microliter of this concentrated stock was used in a 10 uL droplet formation reaction to achieve a final concentration of 100 uM. To calculate enrichment for the in vitro droplet assay, droplets were defined as a region of interest in FIJI by the MED1 scaffold channel, and the maximum signal of the ER client within that droplet was determined. Alternatively, maximum signal of MED1 was measured. In all cases, the maximum signal was divided by the background client signal in the image to generate a Cin/out.

For assay [2], the system named is MYC RNA expression in MCF7 cells. In words: RT-qPCR of MYC RNA expression. The format is cell-based, human. The note with it: MCF7 cells estrogen-deprived 3 days; 10 nM estrogen, or 10 nM estrogen and 5 uM 4-hydroxytamoxifen, 24 hours; normalized to GAPDH. The procedure:
RNA was isolated by AllPrep Kit (Qiagen 80204) followed by cDNA synthesis using High-Capacity cDNA Reverse Transcription Kit (Applies Biosystems 4368814). qPCR was performed in biological and technical triplicate using Power SYBR Green mix (Life Technologies #4367659) on a QuantStudio 6 System (Life Technologies). The following oligos was used in the qPCR; Myc fwd […] (SEQ ID NO: 255), MYC rev […] (SEQ ID NO: 256), GAPDH fwd […] (SEQ ID NO: 257), GAPDH rev […] (SEQ ID NO: 258). Fold change was calculated and MYC expression values were normalized to GAPDH expression.
Background: Quantitative PCR measures a nucleic acid by following its amplification.

For assay [3], the system named is ER LBD-MED1 condensate in U2OS-Lac cells. In words: LAC binding assay (ER LBD tethered to Lac array). The format is cell-based. The note with it: for MED1-containing condensate formation at tethered ER LBD: U2OS-Lac cells, 45 minutes, 10 nM B-Estradiol or 1 uM 4-Hydroxytamoxifen. Here is the method:
Constructs were assembled by NEB HIFI cloning in pSV2 mammalian expression vector containing an SV40 promoter driving expression of a CFP-LacI fusion protein. The activation domains and mutant activation domains of ESR1 were fused by the c-terminus to this recombinant protein, joined by the linker sequence […] (SEQ ID NO: 14). For some experiments a variant plasmid with mCherry in place of CFP was used. […] Cells were then plated on fibronectin-coated glass coverslips and transfected using lipofectamine 3000 (Thermofisher L3000015). For high MED1 conditions, a construct with a mammalian expression vector containing a PGK promoter driving the expression of MED1 fused to GFP was co-transfected. […] Following treatment, cells were fixed and immunofluorescence was performed with a MED1 antibody as described above.
For analysis of Lac array data, custom Python scripts were written to process and analyze image data gathered in Lac and tagged-protein channels. Nuclear stains were blurred with a Gaussian filter (sigma=2.0) and clustered into 2 clusters (nuclei and background) by K-means. The nuclei were then labeled with the python scikit-image package using the measure.label function. To segment Lac spots, the Lac image channel was blurred with a Gaussian filter (sigma=2.0), and an intensity threshold (mean+1.5*std) was applied to the image. Segmented regions (also determined by measure.label) were then filtered based on minimum area (150 pixels), maximum area (2000 pixels), circularity (c=4pi*area/perimeter^2; 0.8), and presence in a nucleus as defined by the mask described above. A norm enrichment ratio was calculated by determining the mean intensity of the tagged-protein in the segmented Lac spot and dividing it by the mean intensity of the tagged-protein present in the same whole nucleus.

For the compound `C[C@]12CC[C@@H]3c4ccc(O)cc4CC[C@H]3[C@@H]1CC[C@@H]2O` [estrogen, B-Estradiol], the “Condensate formation of mutant ER proteins with MED1” value in assay [1] is listed as “estrogen-independent”. The “MYC RNA expression” value in assay [2] was “increase”. Besides, the “MED1-containing condensate formation at tethered ER LBD” value in assay [3] is recorded as “generated a MED1-containing condensate”. The “MED1 condensate formation at tethered ER LBD, dependence on estrogen” value in assay [3] (normal ER) is given as “only in the presence of estrogen”.

As for `CC/C(=C(\c1ccccc1)c1ccc(OCCN(C)C)cc1)c1ccccc1` [tamoxifen], in assay [1], the “Condensate formation of mutant ER proteins with MED1” value is on record as “tamoxifen-insensitive”. Moreover, the “MYC RNA expression” value in assay [2] is recorded as “reduced”. Further, the “MED1 condensate generation by tethered ER LBD in the presence of tamoxifen” value in assay [3] (MED1 overexpressed) is reported as “generated a MED1 condensate”; in assay [3] (normal MED1 levels) it was “did not generate a MED1 condensate”. Moreover, the “MED1-containing condensate formation at tethered ER LBD” value in assay [3] is “prevented”.
